Laboratory results from patent US11247970B2, “Selective inhibition of gluconeogenic activity” (Dana-Farber Cancer Institute, Inc., priority 2017, dated 2022).

What was measured:
primary hepatocytes = assay: Glucose production by primary hepatocytes (glucagon or Ad-PGC-1α); type: cell-based, mouse; conditions: for glucose release to culture medium compared to control: hepatocytes ectopically expressing PGC-1α, overnight treatment, pyruvate/lactate
Description: (§1) For measurement of acetylation, gene expression and glucose production SR-18292 ([…]) was added to cells overnight and fresh compound was added the following day for additional 3 h before collecting the cells (for total of ˜18 h treatment). Where insulin and glucagon stimulation were performed, the medium was changed to starvation medium (DMEM, 0.2% BSA, 2 mM sodium pyruvate, and 1% penicillin/streptomycin) with fresh compound for the last 3 h and cells were stimulated with either 100 nM insulin or 200 nM glucagon for an extra 1.5 h. For glucose measurements following PGC-1α over expression cells were incubated for the last 3 h in glucose-free medium (phenol-red/glucose free DMEM, 0.2% BSA, 2 mM sodium pyruvate and 20 mM sodium lactate or 10 mM glycerol in case glycerol was used as substrate). For glucose measurements following glucagon stimulation cells were incubated for the last 4 h in the same glucose-free medium that also contained glucagon (200 nM). The glucose level in the medium was measured using a glucose assay kit from Eton Bioscience Inc. by adding […] of assay buffer to […] of medium followed by 15 min incubation at 37° C. Absorbance was measured at 490 nm.
PGC-1α activates hepatic gluconeogenic gene expression, and an increase in its acetylation status reduces expression of both Pck1 and G6pc genes (Rodgers et al., 2005; Yoon et al., 2001). […] Thus, a high-throughput screen with these 252 compounds at different doses was performed. Briefly, Hepatocytes were treated with forskolin for 1.5 hours to induce the expression of both Pck1 and G6pc genes, which mimics the fasting and PGC-1α-mediated gluconeogenic response. The dose response curves were used to calculate an inhibitory activity of the compounds by determining the difference in Ct values between compound treatment and forskolin control at each dose, and provided an estimated potency of the compounds in suppressing Pck1 and G6pc (FIGS. 4, 34). […] To specifically test the inhibitory activity of the remaining small molecule positive hits on PGC-1α-mediated glucose production, adenoviruses to ectopically express PGC-1α in primary hepatocytes were used. Similar to forskolin, PGC-1α overexpression induces gluconeogenic gene expression and promotes glucose release. Primary hepatocytes were treated with the chosen positive hit compounds that could suppress gluconeogenic gene expression, and the concentration of glucose released to the culture medium was measured.

[1] = system: Pck1 and G6pc gene expression; assay: Gluconeogenic gene and protein expression in primary hepatocytes (qPCR, western); type: cell-based, mouse; design: effect on glucagon or PGC-1α-increased Pck1 and G6pc expression, relative to SR-18292: dose or concentration left out as unconfirmed; conditions: 18 h, glucagon or Ad-PGC-1α
Description: as §1
siRNA oligos against mouse Ppargc1a were purchased from OriGene (SR420231). Hepatocytes were transfected with a 1:1:1:mixture of 3 unique 27mer siRNA duplexes ([…]) using Lipofectamin RNAiMax (Invitrogen) immediately upon seeding with plating medium. The following morning cells were washed with PBS and medium was changed to maintenance medium. In the afternoon, cells were transfected again and compound treatment started.
Total RNA was extracted from cells or pulverized liver using TRIzol reagent (Ambion, Life Technologies), followed by cDNA preparation from 2 μg of total RNA with a High-Capacity cDNA Reverse Transcription Kit (Applied Biosystems). cDNA products were quantified by real-time PCR using Power SYBR Green PCR Master Mix (Applied Biosystems) on a CFX384 Real-Time PCR System (Bio-Rad). To calculate IC50 from C-80 dose response, curves were fit to the hill equation in a similar manner used to calculate estimated AC50 from the high-throughput qPCR screen. However, unlike the curves from the qPCR high-throughput screen, values of relative repression were used rather than of delta-Ct.

PGC-1α [2] = molecular target: T1, PGC-1α (Mus musculus, UniProt O70343); assay: Western blot of PGC-1α acetylation in U-2 OS cells (analog comparison); type: cell-based; design: expressed in transfected cells; host or cells: U-2 OS cells infected with Ad-PGC-1α and Ad-GCN5; dose or concentration left out as unconfirmed; conditions: Ad-PGC-1α and Ad-GCN5, 18 h
T1 sequence (O70343 1-797): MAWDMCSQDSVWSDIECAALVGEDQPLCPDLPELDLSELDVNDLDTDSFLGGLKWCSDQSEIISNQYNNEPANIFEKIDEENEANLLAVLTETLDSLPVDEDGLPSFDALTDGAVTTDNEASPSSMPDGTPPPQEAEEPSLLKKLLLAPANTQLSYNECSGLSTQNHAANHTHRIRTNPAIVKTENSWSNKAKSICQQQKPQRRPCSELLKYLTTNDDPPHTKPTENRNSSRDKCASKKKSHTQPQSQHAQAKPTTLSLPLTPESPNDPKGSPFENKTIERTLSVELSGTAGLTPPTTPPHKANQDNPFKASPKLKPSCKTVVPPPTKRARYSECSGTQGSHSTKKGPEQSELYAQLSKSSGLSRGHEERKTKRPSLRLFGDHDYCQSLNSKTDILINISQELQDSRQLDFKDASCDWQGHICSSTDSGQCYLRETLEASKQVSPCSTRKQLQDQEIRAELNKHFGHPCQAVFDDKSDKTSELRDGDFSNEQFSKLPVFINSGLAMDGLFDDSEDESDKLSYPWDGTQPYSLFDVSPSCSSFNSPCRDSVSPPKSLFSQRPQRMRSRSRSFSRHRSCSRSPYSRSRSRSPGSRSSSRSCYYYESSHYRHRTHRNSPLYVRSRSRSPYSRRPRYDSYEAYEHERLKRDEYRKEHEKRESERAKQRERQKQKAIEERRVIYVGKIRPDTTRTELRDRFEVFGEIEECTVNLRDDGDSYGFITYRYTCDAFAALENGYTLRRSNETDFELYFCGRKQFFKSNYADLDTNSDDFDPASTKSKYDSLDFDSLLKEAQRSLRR
Description: U-2 OS cells were infected with Ad-PGC-1α and Ad-GCN5 and treated with the indicated compound for 18 h. PGC-1α was immunoprecipitated using FLAG beads.
For PGC-1α acetylation detection in hepatocytes cells were infected with Ad-PGC-1α and Ad-GCN5. Cells were collected in RIPA buffer (containing protease inhibitor cocktail, 5 mM NaF, 5 mM β-glycerophosphate, 10 mM nicotinamide, 1 mM DTT and 1 μM trichostatin A). FLAG-HA-PGC-1α was immunoprecipitated overnight at 4° C. with FLAG beads (Sigma A2220). For GCN5 interaction with PGC-1α, U-2 OS cells were infected with Ad-PGC-1α. Nuclear extracts were obtained by lysing cell in Buffer A (10 mM HEPES-KOH (pH 7.9), 10 mM KCl, 1.5 mM MgCl2, 0.5 mM DTT, 0.25% IGEPAL (v/v), 5 mM NaF, 5 mM β-glycerophosphate, 5 mM sodium butyrate and 10 mM nicotinamide), supplemented with Protease Inhibitor Cocktail. Once cytoplasmic fractions were separated, nuclear pellets were lysed in Buffer B (20 mM HEPES-KOH (pH 7.9), 125 mM NaCl, 1 mM EDTA, 1 mM DTT, 1% IGEPAL (v/v), 10% glycerol (v/v), 5 mM NaF, 5 mM β-glycerophosphate, 5 mM sodium butyrate and 10 mM nicotinamide), supplemented with Protease Inhibitor Cocktail. FLAG-HA-PGC-1α was immunoprecipitated with FLAG beads overnight at 4° C. All beads were washed at last 3 times in lysis buffer before eluting in sample loading buffer.

[3] = Preliminary pharmacokinetics, liver concentration; type: in vivo; conditions: ip, 2 h after single dose 30 mg/kg I.P., read-out: compound concentration in the liver
PGC-1α [4] = molecular target: T1, PGC-1α; assay: AlphaLisa PGC-1α acetylation screen in U-2 OS cells over expressing PGC-1α and GCN5; type: cell-based; design: expressed in transfected cells; host or cells: U-2 OS cells infected with Ad-PGC-1α and Ad-GCN5
Description: U-2 OS cells were thawed and grown in 4 Triple flasks (NUNC) with growth medium. After 48 hours, cells were harvested and seeded in 4 Hyper flasks at a density of 15-20 million cell each. Cells were then grown for 4-5 days until reached confluency. After reaching the desired confluency, medium was changed to assay medium and cells were infected with Ad-PGC-1α and Ad-GCN5 for 4 hours. Following infection, medium was changed to phenol-free medium and cells were incubated overnight. The following day, cells were harvested and seeded on a 384-well plate at 7000 cells/well in […] assay media. Cells were allowed to adhere for 4-8 hours after which 100 nl of compound was added. After overnight incubation with compound, media was aspirated and cells were incubated with lysis buffer for 1 hour at RT. […] Perkin Elmer EnVision plate reader was used for signal detection using Alpha protocol. For each compound, activity score was calculated based on the mean of the normalized and corrected sample activity replicates. […] For each sample the highest valid tested concentration was determined and set as Maximum concentration. […] AC values were calculated using the curve fitting strategies in Genedata Screener Condoseo (7.0.3) and up to the active concentration limit (Maximum concentration) described for each sample. […]

[5] = Solubility (data not shown); type: physicochemical
[6] = Bioavailability (data not shown)

CN(C)C(=N)N=C(N)N [metformin, reference compound]
concentration able to suppress glucose production (primary hepatocytes; hepatocytes): 100 to 250 µM

Cc1ccc(CN(CC(O)COc2ccccc2)C(C)(C)C)cc1 (stereo not drawn) [SR-19138]
effect on glucagon or PGC-1α-increased Pck1 and G6pc expression, relative to SR-18292 [1]: reduced the inhibitory effect
ability to induce acetylation of PGC-1α compared to SR-18292 (PGC-1α [2]): reduced ability to induce acetylation of PGC-1α

Cc1ccc(CN(CC(O)COc2cccc3[nH]cc(C)c23)C(C)(C)C)cc1 (stereo not drawn) [Compound C-80]
concentration at 2 h [3]: 2300 nM
potency in a confirmatory screen (PGC-1α [4]): highest potency
glucose release to culture medium compared to control (primary hepatocytes): next most potent small molecule

Cc1nc(N2CCN(S(=O)(=O)c3ccc(F)cc3)CC2)c2c(-c3cccs3)csc2n1 [Compound C-82]
solubility [5]: poor
glucose release to culture medium compared to control (primary hepatocytes): top small molecule hit suppressing glucose production
bioavailability [6]: poor
